Values of other authors, collected in US20130281523A1, “LOW DOSE CANNABINOID MEDICAMENTS” (priority 2010, published 2013).

System: rat model of sleep apnea
Details: 10 mg/kg intraperitoneal injection

## CCCCCc1cc(O)c2c(c1)OC(C)(C)[C@@H]1CCC(C)=C[C@@H]21 [Dronabinol, Delta-9-tetrahydrocannabinol]
  Breathing cessation during non-REM (NREM) sleep: reduced breathing cessation
